Measured values published in the supplement of paper PMC10307832.

Tests used:
Assay in all cases: relative viability (nuclei count vs DMSO), 5 days (fraction); higher = more cells survive
Linsitinib + Luminespib = compound: C[C@]1(O)C[C@@H](c2nc(-c3ccc4ccc(-c5ccccc5)nc4c3)c3c(N)nccn32)C1 [Linsitinib] + CCNC(=O)c1noc(-c2cc(C(C)C)c(O)cc2O)c1-c1ccc(CN2CCOCC2)cc1 [Luminespib] (partner 0.01 µM)
How it was run: (§1)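 Lung cancer cell lines were seeded in 1536-well plates and dosed by pin tool the next day, with either a single drug or a fixed anchor-drug dose combined with five library-drug doses (not always all listed) spaced in √10 steps. Five days later, one step fixed the cells and stained their nuclei (final 0.05% Triton X-100, 1% formaldehyde, 1 ug/ml Hoechst), and nuclei were counted on 4× images. Relative viability is the nuclei count in treated wells divided by the count in vehicle wells, and each value is the median of duplicate plates.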

Linsitinib + Pictilisib = compound: C[C@]1(O)C[C@@H](c2nc(-c3ccc4ccc(-c5ccccc5)nc4c3)c3c(N)nccn32)C1 [Linsitinib] + CS(=O)(=O)N1CCN(Cc2cc3nc(-c4cccc5[nH]ncc45)nc(N4CCOCC4)c3s2)CC1 [Pictilisib] (partner 1 µM)
How it was run: as §1

Linsitinib + Decitabine = compound: C[C@]1(O)C[C@@H](c2nc(-c3ccc4ccc(-c5ccccc5)nc4c3)c3c(N)nccn32)C1 [Linsitinib] + Nc1ncn([C@H]2C[C@H](O)[C@@H](CO)O2)c(=O)n1 [Decitabine] (partner 2 µM)
How it was run: as §1

Linsitinib + Crizotinib = compound: C[C@]1(O)C[C@@H](c2nc(-c3ccc4ccc(-c5ccccc5)nc4c3)c3c(N)nccn32)C1 [Linsitinib] + C[C@@H](Oc1cc(-c2cnn(C3CCNCC3)c2)cnc1N)c1c(Cl)ccc(F)c1Cl [Crizotinib] (partner 1 µM)
How it was run: as §1

Cell Line | relative viability (Linsitinib + Luminespib; first compound 0.01 µM) | relative viability (Linsitinib + Luminespib; first compound 0.03162 µM) | relative viability (Linsitinib + Luminespib; first compound 0.1 µM) | relative viability (Linsitinib + Luminespib; first compound 0.3162 µM) | relative viability (Linsitinib + Luminespib; first compound 1 µM) | relative viability (Linsitinib + Pictilisib; first compound 0.01 µM) | relative viability (Linsitinib + Pictilisib; first compound 0.03162 µM) | relative viability (Linsitinib + Pictilisib; first compound 0.1 µM) | relative viability (Linsitinib + Pictilisib; first compound 0.3162 µM) | relative viability (Linsitinib + Pictilisib; first compound 1 µM) | relative viability (Linsitinib + Decitabine; first compound 0.01 µM) | relative viability (Linsitinib + Decitabine; first compound 0.1 µM) | relative viability (Linsitinib + Decitabine; first compound 0.3162 µM) | relative viability (Linsitinib + Decitabine; first compound 1 µM) | relative viability (Linsitinib + Crizotinib; first compound 0.01 µM) | relative viability (Linsitinib + Crizotinib; first compound 0.03162 µM) | relative viability (Linsitinib + Crizotinib; first compound 0.1 µM) | relative viability (Linsitinib + Crizotinib; first compound 0.3162 µM) | relative viability (Linsitinib + Crizotinib; first compound 1 µM) | relative viability (Linsitinib + Decitabine; first compound 0.03162 µM)
NCI-H2023 | 0.599 | 0.627 | 0.879 | 0.646 | 0.501 | 0.233 | 0.18 | 0.172 | 0.0774 | 0.147 | 0.213 | 0.239 | 0.196 | 0.243 | 0.57 | 0.474 | 0.753 | 0.374 | 0.359 | 
Calu-6 |  |  |  |  |  | 0.878 | 0.805 | 0.916 | 0.748 | 0.716 |  |  |  |  | 0.79 | 0.701 | 0.837 | 0.717 | 0.708 | 
NCI-H522 | 1.55 | 1.18 | 1.18 | 0.961 | 1.2 |  |  |  |  |  | 0.657 | 0.614 | 0.688 | 0.587 |  |  |  |  |  | 0.773
HOP-62 | 0.939 | 0.964 | 0.923 |  | 0.694 | 0.894 | 0.715 | 0.934 |  | 0.356 | 0.194 | 0.194 |  | 0.201 | 0.959 | 1.02 | 0.798 |  | 0.954 | 0.241
H3255 | 0.87 | 1 | 0.869 | 0.594 | 0.917 | 0.571 | 0.52 | 0.566 | 0.468 | 0.45 |  | 0.559 | 0.518 | 0.686 | 0.84 | 0.817 | 0.95 | 0.773 | 0.813 | 0.627
NCI-H1734 | 0.204 | 0.206 | 0.198 | 0.154 | 0.178 | 0.474 | 0.456 | 0.392 | 0.421 | 0.295 | 0.512 | 0.463 | 0.516 | 0.487 | 0.592 | 0.723 | 0.719 | 0.694 | 0.462 | 0.502
SK-MES-1 | 0.845 | 0.854 | 0.953 | 0.652 | 0.762 | 0.357 | 0.377 | 0.32 | 0.293 | 0.339 | 0.39 | 0.387 | 0.418 | 0.423 | 0.955 | 1.06 | 1.01 | 0.826 | 0.931 | 0.369
NCI-H1792 | 0.427 | 0.52 | 0.371 | 0.297 | 0.328 | 0.314 | 0.279 | 0.192 | 0.269 | 0.179 | 0.496 | 0.512 | 0.472 | 0.363 | 1.01 | 0.96 | 0.951 | 0.764 | 0.746 | 0.484
EKVX | 0.844 | 0.842 | 0.87 | 0.688 | 0.684 | 0.464 | 0.39 | 0.43 | 0.502 | 0.375 |  | 0.329 | 0.348 | 0.324 | 0.895 | 0.938 | 0.99 | 0.795 | 0.943 | 0.37
EPLC-272H | 0.23 | 0.438 |  |  | 0.725 | 0.339 | 0.306 | 0.286 |  | 0.23 | 0.316 | 0.389 |  | 0.344 | 0.774 | 0.995 | 0.873 |  | 0.733 | 0.375
LK-2 | 0.173 | 0.152 | 0.187 | 0.192 | 0.166 | 0.698 | 0.529 | 0.553 | 0.494 | 0.851 | 0.221 | 0.232 | 0.187 | 0.185 | 0.249 | 0.224 | 0.222 | 0.234 | 0.257 | 0.407
CAL-12T | 0.469 | 0.303 | 0.515 | 0.303 | 0.355 | 0.44 | 0.368 | 0.585 | 0.379 | 0.336 |  |  |  |  | 0.641 | 0.596 | 0.625 | 0.556 | 0.467 | 
NCI-H322M | 0.946 | 0.444 | 0.856 | 0.698 | 0.658 | 0.496 | 0.502 | 0.506 | 0.503 | 0.433 | 0.68 | 0.719 | 0.757 | 0.674 | 0.912 | 0.879 | 0.961 | 0.753 | 0.855 | 0.818
NCI-H1650 | 0.196 | 0.167 | 0.235 | 0.202 | 0.172 | 0.529 | 0.485 | 0.556 | 0.138 | 0.356 | 0.571 | 0.415 | 0.325 | 0.361 | 1.03 | 1.08 | 0.963 | 0.915 | 0.799 | 0.449
NCI-H1648 |  |  |  |  |  |  |  |  |  |  | 0.468 | 0.428 | 0.377 | 0.46 |  |  |  |  |  | 0.445
SW 1573 | 0.22 | 0.359 | 0.238 | 0.129 | 0.238 | 0.453 | 0.571 | 0.471 | 0.433 | 0.425 | 0.648 | 0.447 | 0.472 | 0.348 | 0.801 | 0.921 | 0.796 | 0.817 | 0.577 | 0.589
NCI-H2405 | 0.762 | 0.724 | 0.653 | 0.703 | 0.475 | 0.428 | 0.329 | 0.43 | 0.69 | 0.332 | 0.709 | 0.713 | 0.686 | 0.588 | 0.878 | 0.772 | 0.794 | 0.67 | 0.769 | 0.813
LCLC-103H | 1.06 | 0.965 | 0.918 | 0.813 | 0.838 | 0.686 | 0.566 | 0.596 | 0.718 | 0.535 | 0.757 | 0.658 | 0.628 | 0.739 | 0.991 | 0.973 | 1.01 | 0.924 | 0.932 | 0.713
HCC-44 | 1.12 | 1.01 | 0.818 | 0.68 | 0.912 | 0.579 | 0.634 | 0.66 | 0.317 | 0.311 | 0.922 | 0.919 | 0.552 | 0.746 | 0.704 | 0.78 | 0.739 | 0.56 | 0.612 | 0.977
